In one test the target is Histone deacetylase 2 (Homo sapiens, UniProt Q92769). The test can be described thus: Inhibition of recombinant human full length C-terminal FLAG-tagged HDAC2 expressed in baculovirus infected Sf9 insect cells at 3.33 uM using Boc-Lys(epsilon-acetyl)-AMC as substrate incubated for 90 mins by fluorescence assay relative to control.
Test [1] has as its target Class 1 histone deacetylase (Homo sapiens, UniProt Q13547+O15379+Q92769+Q9BY41). Briefly: Inhibition of class 1 HDAC in human CAL27 cells assessed as potentiation of cisplatin-induced apoptosis assessed as increase in caspase-3/7 activation at […] preincubated for 48 hrs followed by cisplatin addition and measured after 24 hrs by CellEvent caspase 3/7 green detection reagent/Hoechst 33342 staining based imaging analysis. The format is cell-based. The following applies: CAL-27.

The species named for the next test is Homo sapiens. Briefly: Induction of apoptosis in human Cal27CisR cells assessed as accumulation at sub-G1 phase at 5 uM after 48 hrs by propidium iodide staining based flow cytometry. The format is functional, cell-based.
Another test deals with CAL-27. The test can be described thus: Induction of apoptosis in human CAL27 cells assessed as accumulation at sub-G1 phase at 0.5 uM after 48 hrs by propidium iodide staining based flow cytometry relative to control. The format is functional.

Structures are written as SMILES. Calls of active or inactive are those of the source. No cut-off for these calls is given here.

Here are results for 3 molecules from ChEMBL document CHEMBL4334526, “Synthesis of Peptoid-Based Class I-Selective Histone Deacetylase Inhibitors with Chemosensitizing Properties” (J Med Chem, 2019).

Class 1 histone deacetylase, sequence (O15379 whole entry, looked up): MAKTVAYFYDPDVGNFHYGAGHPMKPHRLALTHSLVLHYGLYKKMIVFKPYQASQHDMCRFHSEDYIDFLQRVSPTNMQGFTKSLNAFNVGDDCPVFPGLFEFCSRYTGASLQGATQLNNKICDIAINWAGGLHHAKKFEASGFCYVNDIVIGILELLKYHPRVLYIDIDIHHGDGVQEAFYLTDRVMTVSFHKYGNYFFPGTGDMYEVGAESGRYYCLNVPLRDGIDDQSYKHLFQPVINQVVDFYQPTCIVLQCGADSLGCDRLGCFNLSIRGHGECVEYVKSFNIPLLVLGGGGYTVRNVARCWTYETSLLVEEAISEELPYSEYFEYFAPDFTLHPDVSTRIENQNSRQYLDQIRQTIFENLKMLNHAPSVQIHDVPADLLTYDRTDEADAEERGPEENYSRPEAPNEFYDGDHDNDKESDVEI
Class 1 histone deacetylase, sequence (Q13547 whole entry, looked up): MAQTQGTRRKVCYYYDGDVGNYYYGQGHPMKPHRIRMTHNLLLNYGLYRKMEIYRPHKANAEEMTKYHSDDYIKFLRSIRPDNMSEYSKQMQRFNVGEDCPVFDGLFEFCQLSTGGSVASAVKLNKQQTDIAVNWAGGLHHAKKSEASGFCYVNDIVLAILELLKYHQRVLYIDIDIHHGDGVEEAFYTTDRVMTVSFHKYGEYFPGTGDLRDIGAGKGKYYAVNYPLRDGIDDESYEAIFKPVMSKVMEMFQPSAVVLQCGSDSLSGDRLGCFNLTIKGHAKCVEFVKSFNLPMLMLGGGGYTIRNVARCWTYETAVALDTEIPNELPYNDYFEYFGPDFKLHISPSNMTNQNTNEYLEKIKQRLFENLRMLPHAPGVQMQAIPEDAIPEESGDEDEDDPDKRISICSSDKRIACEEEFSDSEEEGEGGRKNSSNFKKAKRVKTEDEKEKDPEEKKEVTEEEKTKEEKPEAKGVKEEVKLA
Class 1 histone deacetylase, sequence (Q92769 whole entry, looked up): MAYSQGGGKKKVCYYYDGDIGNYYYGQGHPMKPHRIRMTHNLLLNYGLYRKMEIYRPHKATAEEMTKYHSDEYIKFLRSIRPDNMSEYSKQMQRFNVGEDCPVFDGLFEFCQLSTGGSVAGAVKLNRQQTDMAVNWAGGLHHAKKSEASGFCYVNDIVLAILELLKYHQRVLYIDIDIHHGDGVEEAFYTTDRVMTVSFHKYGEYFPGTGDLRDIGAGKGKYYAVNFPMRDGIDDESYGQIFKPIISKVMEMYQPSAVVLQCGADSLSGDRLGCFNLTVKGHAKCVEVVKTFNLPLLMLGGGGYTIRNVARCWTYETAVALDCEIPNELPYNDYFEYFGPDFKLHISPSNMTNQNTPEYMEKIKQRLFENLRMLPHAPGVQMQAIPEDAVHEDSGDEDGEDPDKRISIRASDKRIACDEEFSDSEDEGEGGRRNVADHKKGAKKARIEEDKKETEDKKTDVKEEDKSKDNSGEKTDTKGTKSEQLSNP
Class 1 histone deacetylase, sequence (Q9BY41 whole entry, looked up): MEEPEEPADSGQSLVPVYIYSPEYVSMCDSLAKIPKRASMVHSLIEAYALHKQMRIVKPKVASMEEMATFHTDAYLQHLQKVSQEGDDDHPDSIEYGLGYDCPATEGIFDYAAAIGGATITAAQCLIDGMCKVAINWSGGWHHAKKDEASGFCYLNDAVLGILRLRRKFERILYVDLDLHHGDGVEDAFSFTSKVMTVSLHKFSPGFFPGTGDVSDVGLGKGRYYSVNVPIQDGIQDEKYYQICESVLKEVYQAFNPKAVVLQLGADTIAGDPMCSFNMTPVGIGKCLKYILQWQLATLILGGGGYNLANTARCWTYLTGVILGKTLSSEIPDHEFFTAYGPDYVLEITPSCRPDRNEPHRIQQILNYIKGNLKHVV
Histone deacetylase 2, sequence (Q92769 whole entry): as the sequence (Q92769 whole entry, looked up) above

Regarding `Cc1cc(C)cc(C(=O)N(CC(=O)NCc2ccccc2)Cc2ccc(C(=O)Nc3cc(-c4ccccc4)ccc3N)cc2)c1`, on Histone deacetylase 2, the inhibition came to 34%. In addition, the inhibition result in test [1] is “Active”.

With `Cc1cc(C)cc(C(=O)N(CCCCCC(=O)Nc2cc(-c3ccccc3)ccc2N)CC(=O)NCc2ccccc2)c1`, the outcome in the test listed under Homo sapiens was inactive.

Turning to `CN(C)c1ccc(C(=O)N(CC(=O)NCc2ccccc2)Cc2ccc(C(=O)Nc3ccccc3N)cc2)cc1`, the Activity with CAL-27 was 9.42%.
